Results taken from patent publication US12173344B2, “Fluorescent fusion based heterologous peptide production” (Stellenbosch University, priority 2020, dated 2024).
Where no end group is shown, it is not given here.

What was measured:
Assay type in all cases: cell-based
Erythrocyte = Erythrocyte lysis (haemolysis) assay; settings: fusion not cleaved
Description: FIG. 18: Top Panel-SDS-PAGE of purified GFP-LLO and LLO used in erythrocyte lysis assay. Left: Stained gel. Right: Fluorescent image of GFP-LLO and GFP, L: Ladder (NEB ladder #P7712), 1: Uncut GFP-LLO, 2: Cleaved, IMAS purified and desalted LLO. A: GFP-LLO, B: LLO. Bottom Panel-Erythrocyte haemolysis following GFP-LLO exposure at varying pH. Relative haemoglobin absorbance was collected at 540 nm, values expressed as percentage of positive control, mean±SEM (n=3), Analysis via t-test concluded *=p<0.001, ***=p<0.0001 vs Untreated.

[1] = tested on: Listeria monocytogenes EDG-e; experiment: Antilisterial activity, spot plate and SDS-PAGE agar overlay
Description: While the respective bacteriocins were fused to GFP and produced a fluorescent complex, it was important to determine that antimicrobial activity was due to the liberated bacteriocin. Antimicrobial activity of plantaricin 423 and mundticin ST4SA was assessed against Listeria monocytogenes EDG-e grown on Brain Heart Infusion media (BHI) containing […] chloramphenicol. The spot plate method was performed on solid medium (1% w/v agar) seeded with Listeria monocytogenes EDG-e. SDS-PAGE separations were assayed for activity by casting the polyacrylamide gel in an agar bilayer seeded with Listeria monocytogenes EDG-e. Before casting, the poly acrylamide gels were fixed for 20 min in a 25% isopropanol, 10% acetic acid fixing solution and then rinsed 3×15 min with sterile ultra-pure water.
Cleavage parameters were optimized using a modified method from that supplied by the manufacturer. The WELQut-to-Sample ratios were set to 1:100, 1:50, 1:25, 1:5 (v/v) for 50 μL samples of GFP-PlaX and GFP-MunX, respectively, and diluted to a final volume of 250 μL in WELQut cut buffer. The approximate corresponding units of WELQ to 466.5 μg of GFP-PlaX was 2.5 U, 5 U, 10 U and 50 U respectively. The approximate corresponding units of WELQ to 547.5 μg of GFP-MunX was 2.5 U, 5 U, 10 U and 50 U respectively. Cleavage reactions were incubated at 28° C., and 50 μL samples were collected at 2 h, 4 h, 8 h, and 16 h, respectively. Cleavage was assessed by the spot plate method using BHI solid medium (1% w/v agar) seeded with Listeria monocytogenes EGD-e.
Mundticin ST4SA and plantaricin 423 were cleaved from one millilitre of His-tag purified GFP-MunX and GFP-PlaX, respectively, under optimal cleavage conditions. Cleavage reactions were purified using high performance liquid chromatography (HPLC), single peaks were spot tested for antilisterial activity.

Lactobacillus sakei = experiment: Antimicrobial activity (clear zones on plates) against Lactobacillus sakei
Description: (§1) For initial antimicrobial efficacy testing, both GFP-fused and non-GFP-fused pLanthipeptides were loaded (GFP-pNisin and GFP-pPep5) and cleaved directly in wells with trypsin (5 μg/mL for GFPpNisin) or thrombin (3 U/100 μL for GFP-pPep5). Antimicrobial activity was evaluated against Lactobacillus sakei for nisin and against S. carnosus for GFP-pPep5. Plates were incubated at 30° C. overnight until visible clear zones were observed. Lactobacillus sakei was cultured in MRS broth or agar and S. carnosus was cultured in Mueller Hinton Broth or agar.
(§2) GFP-pLanthipeptides were cleaved at 37° C. for 4 h and 20 h, with thrombin or hNisP. Heterologously expressed hNisP was added to concentrations of 0.01 ng/μL, 5 ng/μL, 10 ng/μL, 50 ng/μL and 70 ng/μL. Thrombin was added at 0.75 U, 4.5 U, 3 U and 6 U. Cleavage reactions were performed in 100 μL reactions and protein concentrations of GFP-pLanthipeptides were adjusted to final concentrations of 1 mg/ml with the exception of GFP-pPep5Th which was adjusted to 0.9 mg/mL. Cleavage reactions were stopped by the addition of protease inhibitors. Antimicrobial activity was evaluated against Lb. sakei and S. carnosus for GFP-pNisin (30 μL) and GFP-pPep5 (80 μL), respectively. Plates were incubated at 30° C. overnight until visible clear zones were observed. Samples were separated using SDS-PAGE.

S. carnosus = experiment: Antimicrobial activity (clear zones on plates) against S. carnosus; settings: thrombin and hNisP, 4 h and 20 h cleavage
Description: as §1, §2

[2] = after cleavage / liberation of the core peptide, expression at 26° C.

GFP-LLO was tested, and the “Activity of LLO while fused to fluorescent partner” value (Erythrocyte) was “still has activity”.

“GFP-MunX: GFP fused to mature mundticin ST4SA with WELQut cleavage site (SEQ ID NO:32)” was tested, and the “Antilisterial activity at the band location” value ([1]; SDS-PAGE gel overlay after WELQut cleavage, zone at the size/location of the named species) was “zones of antilisterial activity”, the Antilisterial activity ([1]; WELQut cleaved samples, SDS-PAGE gel overlay) was “clear zones” and the Specific activity ([1]; cleaved fusion protein, compared with the other GFP-bacteriocin) was “higher specific activity”. The Antilisterial activity ([1]; uncleaved fusion protein, spot plate) was “did not show antilisterial activity”.

For “GFP-pNisin: N-terminal His tagged GFP with WELQut site fused to precursor nisin (SEQ ID NO:28/30)”, the Antimicrobial activity (Lactobacillus sakei; [2]) was “highest activity”, the Antimicrobial activity (Lactobacillus sakei; after cleavage with trypsin, expression at a range of temperatures, induction times and IPTG concentrations) was “activity was detected” and the Antimicrobial activity (Lactobacillus sakei; uncleaved sample) was “absent”.

For “HispNisin: His-tagged precursor nisin, no fluorescent fusion (MSTKDFNLDLVSVSKKDSGASPRITSISLCTPGCKTGALMGCNMKTATCHCSIHVSK; cysteine pairing not given here; also: His tag, not shown in chain; UniProt P13068 1-57, looked up)”, the Antimicrobial activity (Lactobacillus sakei; [2]) was “decrease”, the Antimicrobial activity (Lactobacillus sakei; after cleavage with trypsin, expression at 18° C., soluble and insoluble fractions) was “highest activity” and the Antimicrobial activity (Lactobacillus sakei; after cleavage with trypsin, expression at 37° C.) was “substantial loss in activity”.

With “Pep5: lanthipeptide liberated from GFP-pPep5 by thrombin or hNisP (TAGPAIRASVKQCQKTLKATRLFTVSCKGKNGCK; also: lanthipeptide (lantibiotic) thioether rings, not placed; UniProt P19578 27-60, looked up)” the “Effect on antimicrobial activity of increasing concentration and cleavage time” value (S. carnosus) was “detrimental effect”.
